Earlier results, collected in patent US9814239B2, “Antimicrobial complexes” (priority 2010, dated 2017).

What was measured:
Streptococcus faecalis = conditions: Gram Positive
Escherichia coli = conditions: Gram Negative
Bacillus subtilis = conditions: Gram Positive
Saccharomyces cerevisiae = conditions: Amoeba (so in the source)
Salmonella typhimurium = conditions: Gram Negative
Proteus vulgaris = conditions: Gram Negative
Staphylococcus aureus = conditions: Gram Positive
Pseudomonas aeruginosa = conditions: Gram Negative
Aspergillus niger = conditions: Molds
Endomycopsis albicans = conditions: Yeasts

## [O-][n+]1ccccc1S [Sodium Omadine, sodium omadine]
Streptococcus faecalis
  Bactericide concentration (ppm): 2 ppm
Escherichia coli
  Bactericide concentration (ppm): 16 ppm
Bacillus subtilis
  Bactericide concentration (ppm): 0.5 ppm
Saccharomyces cerevisiae
  Fungicide concentration (ppm): <0.25 ppm
Salmonella typhimurium
  Bactericide concentration (ppm): 16 ppm
Proteus vulgaris
  Bactericide concentration (ppm): 8 ppm
Staphylococcus aureus
  Bactericide concentration (ppm): 16 ppm
Pseudomonas aeruginosa
  Bactericide concentration (ppm): 128 ppm
Aspergillus niger
  Fungicide concentration (ppm): <0.25 ppm
Endomycopsis albicans
  Fungicide concentration (ppm): <0.25 ppm
